The values that follow come from patent publication US20230218496A1, “IONIC LIQUID AS AN ANTIPERSPIRANT” (Novigo GmbH, priority 2020, published 2023).

Series [1] is described as follows: Skin compatibility, epicutaneous test (occlusive patch). Conditions: 5% and 7.5% of the active ingredient. The class given is in vivo, human. From the text:
The aim of examining skin compatibility, the so-called epicutaneous test, is to rule out primary skin irritation caused by a test product and/or existing sensitization to the test product. The test substances are applied occlusively to the skin at suitable concentrations. The epicutaneous contact with the test product is limited in terms of location and time and is intensified by occlusion conditions, so that the absorption of the test substances is favored. The skin was examined after 24, 48 and 72 hours. The occlusion conditions are used to allow a potential allergen to more easily penetrate through the stratum corneum to reach the effector cells that could elicit a local immune system response. A positive response occurs when a threshold level of irritation/sensitization is exceeded. A positive reaction to a correctly applied epicutaneous test is considered evidence of primary irritation by the test substance, but not necessarily evidence of sensitization. For the test, 20 mg or 20 μL of the test product is applied undiluted to a ready-made plaster, which is applied and fixed to the clinically healthy skin of the upper back. The test plaster is removed after an exposure time of 24 hours and for the first time assessed dermatologically and allergologically. […] The test reaction was evaluated for the first time 30 minutes after removal of the test plaster under standardized lighting. […]

Series [2] deals with Corynebacterium xerosis DSM 20743, ATCC 373. Description: Minimum inhibitory concentration, dilution series in suspension. Conditions: 1-hexylpyridinium chloride in water. The class given is cell-based. The source says:
(§1) Corynebacteria and germs of the genus Staphylococcus epidermidis are mainly found in the underarm area. Therefore, the bacteriostatic effect of a composition comprising 1-hexylpyridinium chloride in water was investigated in vitro on the relevant test microbes. The test microbes used were Staphylococcus epidermidis with the identifier DSM 20044, ATCC 14990, Corynebacterium xerosis with the identification DSM 20743, ATCC 373 and Kocuria rhizophila of the type Micrococcus with the identifier DSM 11926. Using a series of dilutions of the substance to be tested, the minimum inhibitory concentration was determined at which growth of the bacteria in suspension could no longer be detected. […] Thus, an antimicrobial effect on odor-forming microorganisms and thus a deodorizing effect of the active ingredient 1-hexylpyridinium chloride is also shown in vitro.

The subject of series [3] is Staphylococcus epidermidis DSM 20044, ATCC 14990. Described as above. Format: cell-based. The following applies: 1-hexylpyridinium chloride in water.
Description: as §1

In series [4] the target is BSA (bovine serum albumin) (Bos taurus, UniProt P02769). Description: Protein precipitation in vitro, BSA gelling experiments. Conditions: composition in water. The source says: Therefore, the ability of a composition comprising 1-hexylpyridinium chloride in water for protein precipitation was investigated in vitro using BSA (bovine serum albumin) gelling experiments. An aqueous solution of aluminum chloride hexahydrate was used as a positive control.
Chain of BSA (bovine serum albumin) (P02769 25-607): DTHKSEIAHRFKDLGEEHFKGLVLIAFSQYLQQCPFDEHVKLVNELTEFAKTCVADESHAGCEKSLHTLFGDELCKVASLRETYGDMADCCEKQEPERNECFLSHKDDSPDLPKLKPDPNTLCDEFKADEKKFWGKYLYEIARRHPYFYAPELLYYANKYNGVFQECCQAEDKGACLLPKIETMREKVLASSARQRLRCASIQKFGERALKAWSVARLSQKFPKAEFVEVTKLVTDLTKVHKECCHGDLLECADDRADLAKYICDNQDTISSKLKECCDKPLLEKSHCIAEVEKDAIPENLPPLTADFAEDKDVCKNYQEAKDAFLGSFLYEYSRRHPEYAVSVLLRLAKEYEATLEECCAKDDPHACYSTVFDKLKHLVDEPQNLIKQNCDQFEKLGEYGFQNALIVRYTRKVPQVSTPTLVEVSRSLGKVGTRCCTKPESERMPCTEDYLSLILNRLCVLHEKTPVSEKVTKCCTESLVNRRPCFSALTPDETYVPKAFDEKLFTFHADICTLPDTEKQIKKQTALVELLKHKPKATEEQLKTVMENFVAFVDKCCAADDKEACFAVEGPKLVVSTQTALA

Series [5] in a line: In vitro evidence on toxicity, skin corrosion, mutagenicity, carcinogenicity.
The nature of series [6]: Antiperspirant effect and side effects over the active ingredient concentration range. The class given is in vivo.

With `CCCCCC[n+]1ccccc1.[Cl-]` [1-hexylpyridinium chloride], the “in vivo skin compatibility” value in series [1] is recorded as “Good in vivo skin compatibility”. Moreover, the “minimum inhibitory concentration (inhibition of bacterial growth), final preparation concentration” value in series [2] was determined as 0.2%. In addition, in series [3], the “minimum inhibitory concentration (bacteriostatic effect)” value came out at 0.4%. For the same compound, in series [4], the “gelation of BSA” value is on record as “leads to gelation of BSA”. In series [5], the mutagenicity or carcinogenicity entry is recorded as “no mutagenicity or carcinogenicity”, the skin corrosion entry is listed as “no skin corrosion” and the toxicity entry was “low toxicity”. Also, the serious side effects result in series [6] (active ingredient concentration 0.5% by weight up to 25% by weight) was “serious side effects were ruled out”. Besides, the antiperspirant effect result in series [6] (active ingredient concentration 0.5% by weight up to 30% by weight) was “good antiperspirant effect”.
